Results taken from US20250113823A1, “Arthropod Control Compositions” (priority 2022, published 2025).

Columns and labels:
Anopheles gambiae = experiment: Warm Body assay, mosquito landings on treated warm body; assay type: in vivo; details: Anopheles gambiae, read-out: Percentage of repellence of mosquitoes Anopheles gambiae landing on the warm body; for pest or weed control at 4470 µg/mL: 4.47 mg/mL (Table 4); for pest or weed control at 10000 µg/mL: 10 mg/mL (Table 4)
Description: Anopheles gambiae is also a model organism as it is anthropophilic and transmits malaria.
(§1) The controlling effect according to the present invention was assessed using an adapted Warm Body assay as defined in Kröber T, Kessler S, Frei J, Bourquin M, Guerin P M. 2010. J Am Mosq Control Assoc. 26: 381-386. In this in-vitro assay the number of mosquito landing on a warm body, simulating an attractive host treated with the tested stimuli, was measured in order to assess the repellence effect.
(§2) On the sandblasted glass Petri dish covering the warm body (28.3 cm^2), 100 μL of the compounds diluted at different concentrations in ethanol was applied. The number of mosquito landing on the warm body was counted for each stimulus and pure ethanol (solvent) as control.

Aedes aegypti = experiment: as above; assay type: in vivo; details: Aedes aegypti; for pest or weed control at 16 µg/mL: 0.016 mg/mL (Table 3); for pest or weed control at 16 µg/mL / pest or weed control at 400 µg/mL / pest or weed control at 10000 µg/mL: read-out: Percentage of repellence of mosquitoes Aedes aegypti landing on the warm body; for pest or weed control at 400 µg/mL: 0.4 mg/mL (Table 3); for pest or weed control at 10000 µg/mL: 10 mg/mL (Table 3); for pest or weed control at 1 %: highest tested concentration, 1% (Table 3); for pest or weed control at 1 % / pest or weed control at 0.04 %: read-out: repellence; for pest or weed control at 0.04 %: intermediate concentration of 0.04% (Table 3); for pest or weed control at 0.0016 %: lowest concentration of 0.0016% (Table 3), read-out: reduce the number of mosquito landings
Description: The arthropod controlling effect according to the present invention is determined on mosquitoes using an adapted Warm Body assay as defined in Kröber T, Kessler S, Frei J, Bourquin M, Guerin PM. An in vitro assay for testing mosquito controlling compounds employing a warm body and carbon dioxide as a behavioral activator. J Am Mosq Control Assoc. 2010; 26: 381-386. Further information is provided in the accompanying examples
The controlling effect, repellence & spatial repellence, according to the present invention is determined by testing the Warm Body assay against the yellow fever mosquito, Aedes aegypti Rockefeller strain. […] Observations of controlling efficacy were made on host-seeking females of uniform age, 5 to 10 days old selected as mentioned in the publication mentioned hereinabove. Tested hungry females had access to 10% sugar solution but were not blood-fed. Further information is provided in the accompanying examples.
The published protocol has been adapted in not manually counting the landing mosquitoes but automatically using an automatic counting software, the switch from Anopheles gambiae to A. aegypti led to a decrease of mosquitoes' number placed in the tested cage due to the size difference (i.e. 30 mosquitoes instead of 50) and to an increase of lighting as A. aegypti is a diurnal mosquitoes (i.e. 150 lux instead of 4 lux). Further information is provided in the accompanying examples. […]
as §1
The published protocol has been adapted as the switch from Anopheles gambiae to Aedes aegypti led to a decrease of mosquitoes placed in the tested cage due to the size difference (i.e. 30 mosquitoes instead of 50) and to an increase of lighting since A. aegypti is a diurnal mosquitoes (i.e. 150 lux instead of 4 lux).
as §2

Question: `CCOc1cc(COC)ccc1O` [compound 1271, 2-ethoxy-4-(methoxymethyl)phenol] was tested. Which pest or weed control at 4470 µg/mL (Anopheles gambiae) did it give?
Answer: Its pest or weed control at 4470 µg/mL is 95%.

Question: And the pest or weed control at 10000 µg/mL (Anopheles gambiae)?
Answer: The pest or weed control at 10000 µg/mL was 92%.

Question: What about the pest or weed control at 16 µg/mL (Aedes aegypti) of the same molecule?
Answer: The pest or weed control at 16 µg/mL was 29%.

Question: What about the pest or weed control at 400 µg/mL (Aedes aegypti) of the same molecule?
Answer: The pest or weed control at 400 µg/mL was 84%.

Question: And the pest or weed control at 10000 µg/mL (Aedes aegypti)?
Answer: Its pest or weed control at 10000 µg/mL is 96%.

Question: What about the pest or weed control at 1 % (Aedes aegypti) of the same molecule?
Answer: The pest or weed control at 1 % was over 90%.

Question: And the pest or weed control at 0.04 % (Aedes aegypti)?
Answer: Its pest or weed control at 0.04 % is over 75%.

Question: What does the source list for `COc1cc(C(C)=O)ccc1O` [compound 1468, 1-(4-hydroxy-3-methoxyphenyl)ethanone]?
Answer: pest or weed control at 4470 µg/mL (Anopheles gambiae): 59%; pest or weed control at 10000 µg/mL (Anopheles gambiae): 79%; pest or weed control at 16 µg/mL (Aedes aegypti): 64%; pest or weed control at 400 µg/mL (Aedes aegypti): 74%; pest or weed control at 10000 µg/mL (Aedes aegypti): 90%; pest or weed control at 0.0016 % (Aedes aegypti): > 50%

Question: For `COc1ccc(CC(=O)O)cc1OC` [compound 1564, 2-(3,4-dimethoxyphenyl)acetic acid], which pest or weed control at 178 µg/mL (Anopheles gambiae; 0.178 mg/mL (Table 4)) is on record?
Answer: The pest or weed control at 178 µg/mL was 42%.

Question: What about the pest or weed control at 267 µg/mL (Anopheles gambiae; 0.267 mg/mL (Table 4)) of the same molecule?
Answer: The pest or weed control at 267 µg/mL was 58%.

Question: And the pest or weed control at 400 µg/mL (Anopheles gambiae; 0.4 mg/mL (Table 4))?
Answer: Its pest or weed control at 400 µg/mL is 9%.

Question: And the pest or weed control at 4470 µg/mL (Anopheles gambiae)?
Answer: Its pest or weed control at 4470 µg/mL is 97%.

Question: And the pest or weed control at 10000 µg/mL (Anopheles gambiae)?
Answer: The pest or weed control at 10000 µg/mL was 97%.

Question: And the pest or weed control at 16 µg/mL (Aedes aegypti)?
Answer: Its pest or weed control at 16 µg/mL is 24%.

Question: And the pest or weed control at 400 µg/mL (Aedes aegypti)?
Answer: The pest or weed control at 400 µg/mL was 69%.

Question: What about the pest or weed control at 10000 µg/mL (Aedes aegypti) of the same molecule?
Answer: The pest or weed control at 10000 µg/mL was 82%.

Question: How did the pest or weed control at 16 µg/mL (Aedes aegypti) turn out when `COc1cc(C(=O)O)cc(OC)c1O` [compound 2270, 4-hydroxy-3,5-dimethoxybenzoic acid] was run?
Answer: Its pest or weed control at 16 µg/mL is 67%.

Question: What about the pest or weed control at 400 µg/mL (Aedes aegypti) of the same molecule?
Answer: Its pest or weed control at 400 µg/mL is 62%.

Question: And the pest or weed control at 10000 µg/mL (Aedes aegypti)?
Answer: Its pest or weed control at 10000 µg/mL is 87%.

Question: What about the pest or weed control at 0.0016 % (Aedes aegypti) of the same molecule?
Answer: Its pest or weed control at 0.0016 % is over 50%.

Question: What does the source list for `CCOc1cc(C=O)ccc1OC` [compound 2272, 3-ethoxy-4-methoxybenzaldehyde]?
Answer: pest or weed control at 16 µg/mL (Aedes aegypti): 0%; pest or weed control at 400 µg/mL (Aedes aegypti): 77%; pest or weed control at 10000 µg/mL (Aedes aegypti): 89%; pest or weed control at 0.04 % (Aedes aegypti): > 75%

Question: What does the source list for `CCOc1c(OC)cccc1OC` [compound 2276, 2-ethoxy-1,3-dimethoxybenzene]?
Answer: pest or weed control at 16 µg/mL (Aedes aegypti): 0%; pest or weed control at 400 µg/mL (Aedes aegypti): 0%; pest or weed control at 10000 µg/mL (Aedes aegypti): 98%; pest or weed control at 1 % (Aedes aegypti): > 90%
